Data as given in ChEMBL document CHEMBL1201862, “PubChem BioAssay data set” (2004).
Activity calls are given as the source filed them.

Key:
fMet-Leu-Phe receptor = fMet-Leu-Phe receptor (Homo sapiens, UniProt P21462); assay: FPR ligands, dose response (AID 519); type: functional
[1] = A549 cell cytotoxicity, dose response, cytotoxicity control, plate reader, cherry-pick, antagonist series (AID 743412); type: functional, cell-based
[2] = HepG2 cell cytotoxicity, dose response, cytotoxicity control, plate reader, cherry-pick, antagonist series (AID 743416); type: functional, cell-based
[3] = LGR2 antagonists, dose response, cell-based, HEK293, CRE-luciferase reporter, cherry pick, set 2 (AID 743343); type: functional;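 further: transfected cells were stimulated with diluted bursicon conditioned medium after compound addition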
[4] = MC4R antagonists, dose response, counter-screen for LGR2 antagonist project, cell-based, plate reader, cherry pick (AID 743444); type: functional;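 further: transfected HEK 293 cells stimulated with alpha-MSH peptide; potency of inhibitors of the alpha-MSH evoked signal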
[5] = target: T1, Oxysterols receptor LXR-beta (Homo sapiens, UniProt P55055); type: functional, cell-based;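 further: Cell-based luminescence dose-response assay of agonist activity at LXR, run as a confirmatory counterscreen to a daf-12 agonist screen; HEK293 cells with Gal4-LXR fusion and GAL4-driven luciferase reporter; agonist potency from rising luciferase signal of a Gal4-LXR reporter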
T1 sequence (P55055 whole entry): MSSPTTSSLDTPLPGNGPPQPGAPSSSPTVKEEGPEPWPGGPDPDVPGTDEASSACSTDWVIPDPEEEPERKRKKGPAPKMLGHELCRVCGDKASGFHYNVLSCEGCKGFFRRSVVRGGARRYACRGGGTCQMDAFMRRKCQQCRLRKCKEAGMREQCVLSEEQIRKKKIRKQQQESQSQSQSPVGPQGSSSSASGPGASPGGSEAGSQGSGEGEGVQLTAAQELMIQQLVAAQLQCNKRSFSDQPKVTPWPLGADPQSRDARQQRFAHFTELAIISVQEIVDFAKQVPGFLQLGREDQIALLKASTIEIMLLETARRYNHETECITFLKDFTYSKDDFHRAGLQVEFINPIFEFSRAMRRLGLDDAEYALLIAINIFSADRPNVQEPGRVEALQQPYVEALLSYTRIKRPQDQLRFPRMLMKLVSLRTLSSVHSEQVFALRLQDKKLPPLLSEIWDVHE

[6] = HEK293 cell cytotoxicity, dose response, cytotoxicity control, plate reader, cherry-picked samples (AID 743446); type: functional, cell-based
cells [7] = assay: cells
Major prion protein = Major prion protein (Homo sapiens, UniProt P04156); type: functional, cell-based
cells [8] = assay: cells; remark: listed apart in the source
Albumin = Albumin (Bos taurus, UniProt P02769); assay: Counterscreen for inhibitors of T-cell receptor (TCR)-CD3 interaction: Fluorescence-based biochemical high throughput dose response assay to identify inhibitors of T-cell receptor (TCR)-CD3 interaction using a TAMRA-labeled BSA probe.; type: functional
Aminopeptidase N = target: T2, Aminopeptidase N (Plasmodium falciparum FcB1/Columbia, UniProt O96935); assay: P. falciparum M1AAP inhibitors, biochemical, fluorogenic H-Leu-NHMec substrate, 1536-well (AID 1445); design: species or system Plasmodium falciparum 3D7, 3D7
T2 sequence (O96935 whole entry): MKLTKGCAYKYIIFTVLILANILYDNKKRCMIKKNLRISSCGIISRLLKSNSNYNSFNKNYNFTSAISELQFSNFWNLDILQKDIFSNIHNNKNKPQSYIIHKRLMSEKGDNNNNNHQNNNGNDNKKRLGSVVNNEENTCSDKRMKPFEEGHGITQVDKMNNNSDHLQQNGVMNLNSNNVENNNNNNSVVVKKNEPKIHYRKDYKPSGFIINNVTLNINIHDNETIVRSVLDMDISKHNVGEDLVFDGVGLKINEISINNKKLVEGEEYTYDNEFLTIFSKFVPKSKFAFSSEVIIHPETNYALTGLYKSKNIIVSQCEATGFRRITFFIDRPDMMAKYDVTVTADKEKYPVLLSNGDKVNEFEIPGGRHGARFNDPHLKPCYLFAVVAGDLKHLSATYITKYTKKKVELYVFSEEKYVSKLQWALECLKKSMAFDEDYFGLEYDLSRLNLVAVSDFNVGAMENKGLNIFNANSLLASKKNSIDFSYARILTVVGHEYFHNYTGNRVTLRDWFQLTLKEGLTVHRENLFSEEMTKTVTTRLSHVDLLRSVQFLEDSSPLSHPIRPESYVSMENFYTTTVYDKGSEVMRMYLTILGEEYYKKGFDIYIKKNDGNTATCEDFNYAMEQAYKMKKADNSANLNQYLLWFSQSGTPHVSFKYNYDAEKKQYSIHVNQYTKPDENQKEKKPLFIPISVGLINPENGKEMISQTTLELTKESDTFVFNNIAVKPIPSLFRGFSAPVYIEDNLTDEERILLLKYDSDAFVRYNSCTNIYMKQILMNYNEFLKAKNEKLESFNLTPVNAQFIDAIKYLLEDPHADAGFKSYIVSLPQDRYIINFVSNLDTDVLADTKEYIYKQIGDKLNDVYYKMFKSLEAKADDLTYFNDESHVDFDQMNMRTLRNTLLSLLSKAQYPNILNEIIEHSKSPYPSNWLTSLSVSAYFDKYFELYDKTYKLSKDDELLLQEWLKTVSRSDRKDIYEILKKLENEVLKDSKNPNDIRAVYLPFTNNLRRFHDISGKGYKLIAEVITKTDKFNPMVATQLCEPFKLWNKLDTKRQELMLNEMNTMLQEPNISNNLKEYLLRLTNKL

[9] = tested on: Streptococcus sp. 'group A'; assay: growth inhibition of control SK(-) GAS strain, dose response, counter-screen for streptokinase expression inhibitor project, luminescence, kanamycin, BacTiterGlo, confirmation (AID 1900); type: functional, organism-based
Streptokinase A = target: T3, Streptokinase A (Streptococcus pyogenes serotype M1, UniProt P10520); assay: S. pyogenes streptokinase expression inhibitors, potency, dose response, plasminogen activation absorbance, OD405 (AID 1914); type: functional, Streptococcus pyogenes M1 GAS;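 further: secreted streptokinase activity via plasminogen activation per viability signal from cell pellet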
T3 sequence (P10520 whole entry): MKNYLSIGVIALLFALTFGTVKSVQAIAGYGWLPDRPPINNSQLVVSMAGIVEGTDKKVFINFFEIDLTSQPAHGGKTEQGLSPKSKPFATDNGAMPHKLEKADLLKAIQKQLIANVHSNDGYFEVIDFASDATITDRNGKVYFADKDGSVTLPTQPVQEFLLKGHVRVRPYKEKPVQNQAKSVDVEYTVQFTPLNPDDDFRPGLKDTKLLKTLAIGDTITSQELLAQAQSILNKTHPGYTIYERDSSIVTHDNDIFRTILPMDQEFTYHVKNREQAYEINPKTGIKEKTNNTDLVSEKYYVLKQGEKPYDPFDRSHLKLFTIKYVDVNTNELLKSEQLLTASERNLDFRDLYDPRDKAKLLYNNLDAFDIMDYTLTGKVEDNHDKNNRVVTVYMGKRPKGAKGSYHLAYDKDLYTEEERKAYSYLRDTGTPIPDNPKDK

[10] = cytotoxicity in HPDE-C7 cells, cell-based, fluorescence, HTS (AID 430); type: functional; details: Homo sapiens
[11] = cytotoxicity in KRAS-transformed pancreatic duct cells, primary screen, cell-based, fluorescence, HTS (AID 431); type: functional; details: Homo sapiens;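 further: cell line used: HPDE-C7K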
Streptococcus = assay: Group A Streptococcus viability loss, dose response, counter-screen for streptokinase expression inhibitor project, luminescence, BacTiterGlo (AID 1915); type: functional, organism-based;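 further: potency for reduction of bacterial viability or growth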
Cytochrome P450 2C19 = Cytochrome P450 2C19 (Homo sapiens, UniProt P33261); assay: Cytochrome panel assay with activity outcomes. Panel member name: p450-cyp2c19 Compounds with AC50 equal or less than 10 uM are considered active; type: functional; details: read-out: AC50
cells [12] = type: functional, cell-based
[13] = target: T4, Trace amine-associated receptor 1 (Homo sapiens, UniProt Q96RJ0); assay: Fluorescence-based cell-based high throughput dose response assay to identify agonists of the human trace amine associated receptor 1 (TAAR1).; type: functional
T4 sequence (Q96RJ0 whole entry): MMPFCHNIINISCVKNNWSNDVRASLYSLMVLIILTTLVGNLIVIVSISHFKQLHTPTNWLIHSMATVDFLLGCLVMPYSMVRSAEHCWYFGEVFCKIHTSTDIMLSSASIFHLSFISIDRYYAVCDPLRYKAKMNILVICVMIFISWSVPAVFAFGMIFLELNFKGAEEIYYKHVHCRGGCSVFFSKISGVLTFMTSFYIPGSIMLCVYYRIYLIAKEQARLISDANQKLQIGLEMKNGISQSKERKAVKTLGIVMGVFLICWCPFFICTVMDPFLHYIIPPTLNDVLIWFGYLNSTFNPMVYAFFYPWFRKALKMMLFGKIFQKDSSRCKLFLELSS

[14] = target: T4, Trace amine-associated receptor 1; assay: Counterscreen for agonists of the human trace amine associated receptor 1 (hTAAR1): Fluorescence-based cell-based high throughput dose response assay to identify hTAAR1 agonist that also desensitize TAAR1 receptor response.; type: functional
cells [15] = type: functional, cell-based; remark: listed apart in the source
Cytochrome P450 2C9 = Cytochrome P450 2C9 (Homo sapiens, UniProt P11712)
[16] = A375 melanoma cell viability loss, dose response, counter-screen for MITF inhibitor project, CellTiter-Glo luminescence, dry powder, set 4 (AID 624364); type: functional, cell-based; details: A-375;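 further: A375 melanoma cells are MITF independent so this is a counter screen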
[17] = A375 melanoma cell cytotoxicity, dose response, counter-screen for MITF inhibitor project, CellTiter-Glo luminescence, dry powder, set 2 (AID 624489); type: functional, cell-based; details: A-375;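 further: actives are compounds lowering A375 viability meaning general cytotoxicity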
[18] = inhibitors of intracellular T. cruzi replication, confirmation, NIH3T3 host cells, beta-gal luminescence (AID 2044); type: functional, cell-based;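 further: intracellular parasites grown in NIH/3T3 mouse fibroblasts as host cells; luminescent beta-galactosidase reporter signal from transgenic T. cruzi replicating inside host cells; inhibitors lower the luminescence signal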
[19] = cytotoxicity toward NIH3T3 fibroblasts, dose response, counter-screen, cell-based, ATP luminescence, mouse fibroblasts (AID 2010); type: functional;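 further: cells exposed to compound for about 90 hours before reading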
[20] = target: Induced myeloid leukemia cell differentiation protein Mcl-1 (Homo sapiens, UniProt Q07820); type: functional

CCCC(=O)Nc1c2c(nn1-c1ccc(OC)cc1)C[S+]([O-])C2 (centres undefined)
Ki (fMet-Leu-Phe receptor): > 66.7 µM (inactive)

COc1ccc(C(=O)Nc2nnc(-c3cccs3)s2)cc1
AC50 [1]: 44.5 µM (active)
AC50 [2]: 45.2 µM (active)
AC50 [3]: 5.12 µM (active)
AC50 [4]: 3.17 µM (active)
EC50 [5]: > 67.5 µM (inactive)
AC50 [6]: > 52 µM (inactive)
EC50 (cells [7]): > 67.5 µM (inactive)

Cc1cc(NC(=O)CSc2nc(CCC3CCCC3)nc3ccccc23)no1
IC50 (Major prion protein): 9.42 µM (active)
IC50 (cells [8]): > 138 µM (inactive)

O=C(Cc1ccccc1)NNC(=S)NC(=O)c1cccnc1
IC50 (Albumin): > 94.1 µM (inactive)

CCCCCNC(=O)c1ccc2c(=O)[nH]c3c(C(=O)NCC4CCCO4)sc(=S)n3c2c1 (centres undefined)
IC50 (Aminopeptidase N): 37 µM (active)
EC50 [9]: 0.944 µM (active)
EC50 (Streptokinase A): 21.1 µM (inconclusive)
EC50 [10]: 17.6 µM (active)
EC50 [11]: > 20 µM (not active)
EC50 (Streptococcus): > 150 µM (not active)
Ki (fMet-Leu-Phe receptor): 40.7 µM (inactive)

CCc1nc(SCC(=O)NNC(=O)C(C)C)c2ccccc2n1
IC50 (Major prion protein): 1.93 µM (active)
IC50 (cells [8]): > 138 µM (inactive)

CC1CN(C(NC(=O)C(C)(C)C)C(Cl)(Cl)Cl)CC(C)O1 (centres undefined)
AC50 (Cytochrome P450 2C19): 8.91 µM (inconclusive)
IC50 (cells [12]): > 29.9 µM (inactive)
EC50 [13]: 3.82 µM (active)
IC50 [14]: 21.6 µM (inactive)
EC50 (cells [15]): > 29.9 µM (inactive)
AC50 (Cytochrome P450 2C9): 14.1 µM (inconclusive)

O=C(NC1=C(c2ccccc2)C(=O)c2ccccc2C1=O)c1ccco1
AC50 [16]: 21.3 µM (active)
AC50 [17]: 14.2 µM (active)

O=C(NC1=C(c2ccccc2)C(=O)c2ccccc2C1=O)c1ccc(Br)cc1
AC50 [16]: 45.8 µM (active)
AC50 [17]: 22.9 µM (active)

CCc1nnc(S)n1/N=C/c1cc(OC)cc([N+](=O)[O-])c1O
EC50 [18]: 0.815 µM (active)
EC50 [19]: > 60 µM (not active)
IC50 [20]: 12.4 µM (active)
IC50 (Albumin): > 94.1 µM (inactive)
